Literature values as cited in PMC5655430 (PLoS ONE, 2017).

Tests used:
glucagon receptor (Gcgr) = system: glucagon receptor (Gcgr)
Excerpt: (§1) The complex nature of diabetic disorder necessitates use of combination therapies that will not only reduce hyperglycemia, but also correct other elements of diabetes complication, such as dyslipidemia. An increasingly common approach in peptide therapeutics focuses on hybrid peptides that can target two or even three receptors. […] Similar dual agonist peptides, with improved half-life and potency have been rep ...

[1] = system: glucagon-like peptide 1 receptor (Glp1r)
Excerpt: as §1

Oxyntomodulin
Binding and activation on Gcgr (glucagon receptor (Gcgr)): weak binding and activation
Binding and activation on Glp1r [1]: weak binding and activation
